Results published in publication PMC4382465 (The Journal of antibiotics, 2014).
Converted amounts (≈) assume the structure as drawn.

Experiments:
[1] = system: M. tuberculosis H37Rv RFPr; experiment: MIC, broth dilution; type: cell-based; conditions: Mycobacterium tuberculosis
[2] = system: M. tuberculosis H37Rv INHr; experiment: MIC, broth dilution; type: cell-based; conditions: Mycobacterium tuberculosis

Structure (SMILES) | MIC [1] | MIC [2]
CO[C@H]1/C=C/O[C@@]2(C)Oc3c(C)c(O)c4c(O)c(c(/C=N/N5CCN(C)CC5)c(O)c4c3C2=O)NC(=O)/C(C)=C\C=C\[C@H](C)[C@H](O)[C@@H](C)[C@@H](O)[C@@H](C)[C@H](OC(C)=O)[C@@H]1C [Rifampicin (RFP), Rifampicin] | > 4 µg/mL | –
COC1C(C(OC2OC(C(=O)NC3CCCCNC3=O)=CC(O)C2O)C(N)=O)OC(n2ccc(=O)[nH]c2=O)C1OC (stereo not drawn) [UT-01320 (3), 6-{Carbamoyl-[5-(2,4-dioxo-3,4-dihydro-2H-pyrimidin-1-yl)-3,4-dimethoxy-tetrahydro-furan-2-yl]-methoxy}-4,5-dihydroxy-5,6-dihydro-4H-pyran-2-carboxylic acid (2-oxo-azepan-3-yl)-amide] | 2.45 µg/mL (≈ 4.2 µM) | 2.5 µg/mL (≈ 4.28 µM)
